The nature of data set [1]: Water solubility of brightener. It counts as physicochemical. From the text:
Brighteners should have some water solubility for easy incorporation into the fabric conditioning composition. […] Fluorescent whitening agents, generally due to their low water solubility, are difficult to incorporate into liquid fabric conditioning compositions. Often it is advantageous to post-add brighteners to a finished base product. One convenient way to do this is to make a brighteners premix.

Data set [2] can be described thus: Chemical stability of brightener in acidic product matrix. The class given is physicochemical. The following applies: biodegradable fabric conditioning compositions, pH from about 3 to about 4.

The results in this text go back to patent US7235518B2, “Fabric care compositions comprising hueing dye” (The Procter & Gamble Company, priority 2004, dated 2007).

Take `O=S(=O)(O)c1ccccc1C=Cc1ccc(-c2ccc(C=Cc3ccccc3S(=O)(=O)O)cc2)cc1.[Na].[Na]` [Tinopal CBS-X, Disodium 4,4′-bis-(2-sulfostyryl) biphenyl]: the water solubility is 2.5% in data set [1] (25 C) and “about 2.5 weight percent” in data set [1] (25° C.). Further, the “chemical stability in the acidic product matrix” value in data set [2] is recorded as “better than some other brighteners”.
